From ChEMBL document CHEMBL1150847, “New lactone-containing metabolites from a marine-derived bacterium of the genus Streptomyces” (J Nat Prod, 2001)
Active and inactive are the calls of the source. The calls are words filed in the database; no cut-off is given here.

tested on: Candida albicans; assay: Antifungal activity against Candida albicans by paper disk method; assay type: functional, organism-based

SMILES	Activity
CC(C)CC[C@@H]1C(=O)O[C@@H](C)[C@@H]1O	Active
CC(C)CC[C@H]1C(=O)O[C@@H](C)[C@@H]1O	Active
CC(C)(O)CCCCCC1C=CC(=O)O1 (configuration not stated)	Active
CCC(C)C[C@H]1C(=O)O[C@@H](C)[C@@H]1O (some centres not stated)	Active
CCC(C)(O)CCCCCC1C=CC(=O)O1 (configuration not stated)	Active
CC(=O)C(C)CCCCCC1C=CC(=O)O1 (configuration not stated)	Active
CCCC[C@H]1C(=O)O[C@@H](C)[C@@H]1O	Active
